Source: patent publication US20040048831A1, “Verifiable absorption drug delivery form based on cyclodextrins” (priority 2002, published 2004)

Key:
[1] = Release of drugs from paper disk dosage forms in vitro (continuous elution by water, spectrophotometry); assay type: physicochemical; details: eluted disks dried and eluted by methanol (50 ml) overnight
[2] = as above; assay type: physicochemical; details: first milliliters of eluent
Method: To prepare the dosage form, cyclodextrin was dissolved in water (50% solutions for HPBCD, 20% for gamma-cyclodextrin and sulfopropyl beta-cyclodextrin), or aqueous ethanol for HPBCD (50% solution). This solution was saturated with drug by intensive stirring for two hours. The suspension was then filtered and then spotted on paper or filtration cloth and air dried.
Paper disks of 2 cm diameter and carrying drug: cyclodextrin inclusion complexes in the amounts specified in Table 1 below were continuously eluted by water and the amount of drug eluted was measured by spectrophotometry. For progesterone, a wavelength of 240 nm was used. Data had to be corrected since paper contains a minor component which elutes rapidly and absorbs at this wavelength. Prewashing of paper removes this complication. Amphotericin B content was analyzed using wavelength 410 nm and data previously published (M. Kajtar et al., Biopolymers, 28, 1585-1596, 1989).

[3] = Release of cyclodextrin and drug from paper disk dosage forms in vivo (kept under the tongue, residue extracted); details: for Progesterone left in disk, % of the originally present progesterone: progesterone:HPBCD paper disk, non-released disk = 100%
Method: Paper disks of 2 cm diameter containing only HPBCD were kept under the tongue for 3 to 4 minutes and dried after retrieval. The disks were then extracted by water (50 ml) overnight and soluble carbohydrates in the extracts measured using anthrone reagent (Methods in Carbohydrate Chemistry, Volume 1, page 523, wavelength used 620 nm). HPBCD is reactive toward this reagent. The control paper disk with HPBCD, but not released under the tongue, registered 100 units (arbitrary scale); the empty paper disk registered 1.8 units; disks loaded with HPBCD and released for 3 to 4 minutes under the tongue, 1.6 units.
Paper disks carrying progesterone:HPBCD combination, prepared as in Example 2 were kept under the tongue and, after retrieval, dried and extracted by water (50 ml) overnight. Progesterone in the extracts was measured by spectrophotometry using methods and precautions as in Example 2. When progesterone extracted from the original disks (i.e., not released under tongue) is taken as 100%, disks which were released for 5 minutes under the tongue yielded 3.8% of the originally present progesterone, and disks released for 10 minutes, 3.2%. Several minutes under the tongue thus releases nearly all drug into the oral cavity.

Row | SMILES | Additional drug release from eluted, dried disks by methanol [1] | Completeness of release of drug by water from cyclodextrin paper disks [2] | Time for release of HPBCD into mouth ([3]; paper disk under the tongue) | Progesterone left in disk, % of the originally present progesterone ([3]; released 5 minutes under the tongue) | Progesterone left in disk, % of the originally present progesterone ([3]; released 10 minutes under the tongue)
1 | C[C@@H]1[C@H](O)[C@@H](C)/C=C/C=C/C=C/C=C/C=C/C=C/C=C/[C@H](O[C@@H]2O[C@H](C)[C@@H](O)[C@H](N)[C@@H]2O)C[C@@H]2O[C@](O)(C[C@@H](O)C[C@@H](O)[C@H](O)CC[C@@H](O)C[C@@H](O)CC(=O)O[C@H]1C)C[C@H](O)[C@H]2C(=O)O [Amphotericin B] | further drug was release | only partial | – | – | –
2 | CC(O)COC[C@H]1O[C@@H]2O[C@H]3[C@H](O)[C@@H](O)[C@@H](O[C@H]4[C@H](O)[C@@H](O)[C@@H](O[C@H]5[C@H](O)[C@@H](O)[C@@H](O[C@H]6[C@H](O)[C@@H](O)[C@@H](O[C@H]7[C@H](O)[C@@H](O)[C@@H](O[C@H]8[C@H](O)[C@@H](O)[C@@H](O[C@H]1[C@H](O)[C@H]2O)O[C@@H]8COCC(C)O)O[C@@H]7COCC(C)O)O[C@@H]6COCC(C)O)O[C@@H]5COCC(C)O)O[C@@H]4COCC(C)O)O[C@@H]3COCC(C)O (stereo partly drawn) [HPBCD, hydroxypropyl beta-cyclodextrin] | – | – | completed within a few minutes | – | –
3 | CC(=O)[C@H]1CC[C@H]2[C@@H]3CCC4=CC(=O)CC[C@]4(C)[C@H]3CC[C@]12C [Progesterone] | No additional release was observed | complete | – | 3.8% | 3.2%
